Test system: IMR-90 fibroblasts
Test: Induction of senescence in non-senescent cells by prostaglandins or 5-LOX pathway products (EdU, SA-B-gal, p21, immunoblot)
Format: cell-based, human
Conditions: 10 μM, 10 days
Method: RNA was extracted from cells or tissues using commercially available kits (Isolate II—Bioline for cells; Direct-zol—Zymo for tissues) according to the manufacturer's instructions. cDNA synthesis was performed using a High Capacity cDNA Reverse Transcription Kit (Thermo Fisher) according to the manufacturer's instructions. Quantitative PCR was performed on a LightCycler 480 II (Roche) using primers and probes designed for the Universal Probe Library. Primers and probes used for human transcripts were ACTB: 5′-CCAACCGCGAGAAGATGA (SEQ ID NO:1), 5′-TCCATCACGATGCCAGTG (SEQ ID NO:2), Probe #64; TUBA: 5′-cttcgtctccgccatcag (SEQ ID NO:3), 5′-ttgccaatctggacacca (SEQ ID NO:4), Probe #58; ALOX5: 5′-[…] (SEQ ID NO:5), 5′-[…] (SEQ ID NO:6), Probe #64; ALOX5AP: 5′-ggtctgcggggctacttt (SEQ ID NO:7), 5′-[…] (SEQ ID NO:8), Probe #18; ALOX12: 5′-[…] (SEQ ID NO:9), 5′-agccaggtcgtcaggag (SEQ ID NO:10), Probe #32; ALOX15: 5′-[…] (SEQ ID NO:11), 5′-[…] (SEQ ID NO:12), Probe #76; ALOX15B: 5′-[…] (SEQ ID NO:13), 5′-actgggaggcgaagaagg (SEQ ID NO:14), Probe #51; AKR1C1: 5′-catgcctgtcctgggattt (SEQ ID NO:15), 5′-[…] (SEQ ID NO:16), Probe #49; AKR1C2: 5′-ctatgcgcctgcagaggt (SEQ ID NO:17), 5′-[…] (SEQ ID NO:18), Probe #31; AKR1C3: 5′-[…] (SEQ ID NO:19), 5′-[…] (SEQ ID NO:20), Probe #78; CYSLTR2: 5′-[…] (SEQ ID NO:21), 5′-[…] (SEQ ID NO:22), Probe #18; DPEP1: 5′-gacgtcctgaggctggtg (SEQ ID NO:23), 5′-[…] (SEQ ID NO:24), Probe #9 (SEQ ID NO:25), ELOVL2: 5′-[…] (SEQ ID NO:26), 5′-[…] (SEQ ID NO:27), Probe #53; ELOVL4: 5′-catttggcccatggattc (SEQ ID NO:28), 5′-[…] (SEQ ID NO:29), Probe #31; ELOVL5: 5′-cccttccatgcgtccata (SEQ ID NO:30), 5′-[…] (SEQ ID NO:31), Probe #31; EPHX2: 5′-ttctgctggacaccctgaa (SEQ ID NO:32), 5′-[…] (SEQ ID NO:33), Probe #45; GPX4: 5′-ttcccgtgtaaccagttcg (SEQ ID NO:34), 5′-[…] (SEQ ID NO:35), Probe #36; LTA4H: 5′-ctgctctcacggtccagtc (SEQ ID NO:36), 5′-[…] (SEQ ID NO:37), Probe #64; LTBR2: 5′-[…] (SEQ ID NO:38), 5′-[…] (SEQ ID NO:39), Probe #33; LTC4S: 5′-[…] (SEQ ID NO:40), 5′-[…] (SEQ ID NO:41), Probe #18; PTGDS: 5′-[…] (SEQ ID NO:42), 5′-[…] (SEQ ID NO:43), Probe #36; PTGES: 5′-agagatgcctgcccacag (SEQ ID NO:44), 5′-tggccaccacgtacatctt (SEQ ID NO:45), Probe #4; PTGES2: 5′-[…] (SEQ ID NO:46), 5′-[…] (SEQ ID NO:47), Probe #49; PTGES3 (SEQ ID NO:48), 5′-[…] (SEQ ID NO:49), 5′-[…] (SEQ ID NO:50), Probe #48; PTGIS: 5′-[…] (SEQ ID NO:51), 5′-[…] (SEQ ID NO:52), Probe #45; PTGR1: 5′-atgatggggcagcaagtg (SEQ ID NO:53), 5′-cccatcagaaatggagtgc (SEQ ID NO:54), Probe #64; PTGS1: 5′-[…] (SEQ ID NO:55), 5′-gtggtggtccatgttcctg (SEQ ID NO:56), Probe #81; PTGS2: 5′-gatccccagggctcaaac (SEQ ID NO:57), 5′-[…] (SEQ ID NO:58), Probe #61; TBXAS1: 5′-[…] (SEQ ID NO:59), 5′-tgcctcccgtgtgaatct (SEQ ID NO:60), Probe #73; AREG: 5′-[…] (SEQ ID NO:61), 5′-[…] (SEQ ID NO:62), Probe #73; CCL2: 5′-AGTCTCTGCCGCCCTTCT (SEQ ID NO:63), 5′-GTGACTGGGGCATTGATTG (SEQ ID NO:64), Probe #40; CCL27: 5′-[…] (SEQ ID NO:65), 5′-gctgggtggcagtaggaat (SEQ ID NO:66), Probe #18; CXCL1: 5′-[…] (SEQ ID NO:67), 5′-[…] (SEQ ID NO:68), Probe #52; HGF: 5′-[…] (SEQ ID NO:69), 5′-[…] (SEQ ID NO:70), Probe #49; ILIA: 5′-[…] (SEQ ID NO:71), 5′-[…] (SEQ ID NO:72), Probe #6; IL1B: 5′-[…] (SEQ ID NO:73), 5′-[…] (SEQ ID NO:74), Probe #78; IL6: 5′-[…] (SEQ ID NO:75), 5′-gaaggcagcaggcaacac (SEQ ID NO:76), Probe #45; IL8: 5′-[…] (SEQ ID NO:77), 5′-atggttccttccggtggt (SEQ ID NO:78), Probe #72; IL10: 5′-[…] (SEQ ID NO:79), 5′-[…] (SEQ ID NO:80), Probe #67; MMP3: 5′-[…] (SEQ ID NO:81), 5′-[…] (SEQ ID NO:82), Probe #36; PDGFA: 5′-[…] (SEQ ID NO:83), 5′-[…] (SEQ ID NO:84), Probe #80; VEGF: 5′-[…] (SEQ ID NO:85), 5′-[…] (SEQ ID NO:86), Probe #50; P21WAF1(CDKN1A): 5′-[…]

CCCCC/C=C/C=C1/C(=O)C=C[C@@H]1C/C=C\CCCC(=O)O [15d-PGJ2]
induced: p21 gene expression | senescence-associated beta-galactosidase | p21 protein accumulation (immunoblot)

Source: US20200371122A1, “BIOMARKER FOR SENESCENT CELLS” (Buck Institute for Research on Aging, priority 2017, published 2020)
